Reference: PMC11689655, “High-throughput screening of dual-target inhibitors for SARS-CoV-2 main protease and papain-like protease from Chebulae Fructus: in silico prediction and experimental verification” (Frontiers in Microbiology, 2024)
Where two headings read alike, the source gives them in different places.

Tests used:
SARS-CoV-2 Omicron BA.5 = experiment: Antiviral activity (CPE inhibition) in Vero E6 cells, Omicron BA.5; assay type: cell-based; conditions: read-out: EC50 against Omicron BA.5 variant
SARS-CoV-2 Omicron EG.5 = experiment: Antiviral activity (CPE inhibition) in Vero E6 cells, Omicron EG.5; assay type: cell-based; conditions: read-out: EC50 against Omicron EG.5 variant
[1] = Severe acute respiratory syndrome coronavirus 2, Vero C1008, 48 h

O=C(OC[C@H]1O[C@@H](OC(=O)c2cc(O)c(O)c(O)c2)[C@H](OC(=O)c2cc(O)c(O)c(O)c2)[C@@H](OC(=O)c2cc(O)c(O)c(O)c2)[C@@H]1OC(=O)c1cc(O)c(O)c(O)c1)c1cc(O)c(O)c(O)c1 [PGG, 1,2,3,4,6-penta-O-galloyl-β-D-glucose]
EC50 (SARS-CoV-2 Omicron BA.5; [1]): 3.2 µM
EC50 (SARS-CoV-2 Omicron EG.5; [1]): 15.4 µM

Cn1cnc(Cn2c(=O)[nH]/c(=N\c3cc4cn(C)nc4cc3Cl)n(Cc3cc(F)c(F)cc3F)c2=O)n1 [S-217622, reference compound]
EC50 (SARS-CoV-2 Omicron BA.5): 0.09 µM
EC50 (SARS-CoV-2 Omicron EG.5): 0.06 µM

O=C(OC[C@H]1O[C@@H](OC(=O)c2cc(O)c(O)c(O)c2)[C@H](OC(=O)c2cc(O)c(O)c(O)c2)[C@@H](OC(=O)c2cc(O)c(O)c(O)c2)[C@@H]1O)c1cc(O)c(O)c(O)c1 [TGG, 1,2,3,6-tetra-O-galloyl-β-D-glucose]
EC50 (SARS-CoV-2 Omicron BA.5; [1]): 25.7 µM
EC50 (SARS-CoV-2 Omicron EG.5; [1]): 37.3 µM
